Legend:
Assay in all cases: relative viability (nuclei count vs DMSO), 5 days (fraction); higher = more cells survive
[1] = tested on: NCI-H1793
Summary of the method: (§1)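 Values are medians from duplicate plates. Each reflects relative viability, defined as the nuclei count of treated wells over that of vehicle wells. Lung cancer cell lines in 1536-well plates were pin-tool dosed one day after seeding with one drug alone or with a fixed anchor-drug dose plus five library-drug doses (not always all listed) in √10 steps, then fixed, stained and imaged at 4× after 5 days.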

[2] = tested on: NCI-H1395
Summary of the method: as §1

[3] = tested on: NCI-H2085
Summary of the method: as §1

[4] = tested on: H3255
Summary of the method: as §1

[5] = tested on: SK-MES-1
Summary of the method: as §1

[6] = tested on: ChaGo-K-1
Summary of the method: as §1

[7] = tested on: NCI-H520
Summary of the method: as §1

[8] = tested on: COR-L23
Summary of the method: as §1

[9] = tested on: HCC-827
Summary of the method: as §1

[10] = tested on: NCI-H2405
Summary of the method: as §1

[11] = tested on: HCC-44
Summary of the method: as §1

[12] = tested on: NCI-H838
Summary of the method: as §1

[13] = tested on: EMC-BAC-2
Summary of the method: as §1

[14] = tested on: NCI-H1651
Summary of the method: as §1

[15] = tested on: LU99A
Summary of the method: as §1

[16] = tested on: NCI-H2023
Summary of the method: as §1

[17] = tested on: NCI-H1944
Summary of the method: as §1

[18] = tested on: EPLC-272H
Summary of the method: as §1

[19] = tested on: NCI-H2087
Summary of the method: as §1

Nc1ccn([C@@H]2O[C@H](CO)[C@@H](O)[C@@H]2O)c(=O)n1 [Cytarabine] + CC1(C)CCC(c2ccc(Cl)cc2)=C(CN2CCN(c3ccc(C(=O)NS(=O)(=O)c4ccc(N[C@H](CCN5CCOCC5)CSc5ccccc5)c(S(=O)(=O)C(F)(F)F)c4)cc3)CC2)C1 [Navitoclax] (partner 0.5 µM)
relative viability ([1]; first compound 0.005 µM): 0.273 | relative viability ([1]; first compound 0.01581 µM): 0.333 | relative viability ([1]; first compound 0.05 µM): 0.271 | relative viability ([1]; first compound 0.1581 µM): 0.261 | relative viability ([1]; first compound 0.5 µM): 0.244 | relative viability ([2]; first compound 0.005 µM): 1.2 | relative viability ([2]; first compound 0.01581 µM): 0.849 | relative viability ([2]; first compound 0.05 µM): 0.65 | relative viability ([2]; first compound 0.1581 µM): 0.48 | relative viability ([2]; first compound 0.5 µM): 0.368 | relative viability ([3]; first compound 0.005 µM): 1.15 | relative viability ([3]; first compound 0.01581 µM): 1.08 | relative viability ([3]; first compound 0.05 µM): 1.02 | relative viability ([3]; first compound 0.1581 µM): 0.731 | relative viability ([3]; first compound 0.5 µM): 0.728 | relative viability ([4]; first compound 0.005 µM): 0.451 | relative viability ([4]; first compound 0.01581 µM): 0.506 | relative viability ([4]; first compound 0.05 µM): 0.411 | relative viability ([4]; first compound 0.1581 µM): 0.325 | relative viability ([4]; first compound 0.5 µM): 0.332 | relative viability ([5]; first compound 0.005 µM): 0.957 | relative viability ([5]; first compound 0.01581 µM): 0.869 | relative viability ([5]; first compound 0.05 µM): 0.408 | relative viability ([5]; first compound 0.1581 µM): 0.22 | relative viability ([5]; first compound 0.5 µM): 0.178 | relative viability ([6]; first compound 0.005 µM): 0.74 | relative viability ([6]; first compound 0.01581 µM): 0.505 | relative viability ([6]; first compound 0.05 µM): 0.453 | relative viability ([6]; first compound 0.1581 µM): 0.364 | relative viability ([6]; first compound 0.5 µM): 0.37 | relative viability ([7]; first compound 0.005 µM): 0.955 | relative viability ([7]; first compound 0.01581 µM): 0.902 | relative viability ([7]; first compound 0.05 µM): 1.14 | relative viability ([7]; first compound 0.1581 µM): 0.904 | relative viability ([7]; first compound 0.5 µM): 0.781 | relative viability ([8]; first compound 0.005 µM): 0.944 | relative viability ([8]; first compound 0.01581 µM): 0.842 | relative viability ([8]; first compound 0.05 µM): 0.555 | relative viability ([8]; first compound 0.1581 µM): 0.168 | relative viability ([8]; first compound 0.5 µM): 0.129 | relative viability ([9]; first compound 0.005 µM): 0.615 | relative viability ([9]; first compound 0.01581 µM): 0.529 | relative viability ([9]; first compound 0.05 µM): 0.398 | relative viability ([9]; first compound 0.1581 µM): 0.264 | relative viability ([9]; first compound 0.5 µM): 0.252 | relative viability ([10]; first compound 0.005 µM): 0.851 | relative viability ([10]; first compound 0.01581 µM): 0.671 | relative viability ([10]; first compound 0.05 µM): 0.424 | relative viability ([10]; first compound 0.1581 µM): 0.373 | relative viability ([10]; first compound 0.5 µM): 0.114 | relative viability ([11]; first compound 0.005 µM): 0.949 | relative viability ([11]; first compound 0.01581 µM): 1.01 | relative viability ([11]; first compound 0.05 µM): 0.534 | relative viability ([11]; first compound 0.1581 µM): 0.563 | relative viability ([11]; first compound 0.5 µM): 0.26 | relative viability ([12]; first compound 0.005 µM): 1.29 | relative viability ([12]; first compound 0.01581 µM): 1.18 | relative viability ([12]; first compound 0.05 µM): 0.816 | relative viability ([12]; first compound 0.1581 µM): 0.446 | relative viability ([12]; first compound 0.5 µM): 0.262 | relative viability ([13]; first compound 0.005 µM): 0.843 | relative viability ([13]; first compound 0.01581 µM): 0.987 | relative viability ([13]; first compound 0.05 µM): 0.789 | relative viability ([13]; first compound 0.1581 µM): 0.243 | relative viability ([13]; first compound 0.5 µM): 0.19 | relative viability ([14]; first compound 0.005 µM): 0.993 | relative viability ([14]; first compound 0.01581 µM): 1.18 | relative viability ([14]; first compound 0.05 µM): 1.24 | relative viability ([14]; first compound 0.1581 µM): 0.625 | relative viability ([14]; first compound 0.5 µM): 0.3 | relative viability ([15]; first compound 0.005 µM): 0.906 | relative viability ([15]; first compound 0.01581 µM): 0.826 | relative viability ([15]; first compound 0.05 µM): 0.771 | relative viability ([15]; first compound 0.1581 µM): 0.726 | relative viability ([15]; first compound 0.5 µM): 0.56 | relative viability ([16]; first compound 0.005 µM): 0.549 | relative viability ([16]; first compound 0.01581 µM): 0.356 | relative viability ([16]; first compound 0.05 µM): 0.195 | relative viability ([16]; first compound 0.1581 µM): 0.108 | relative viability ([16]; first compound 0.5 µM): 0.103 | relative viability ([17]; first compound 0.005 µM): 0.605 | relative viability ([17]; first compound 0.01581 µM): 0.363 | relative viability ([17]; first compound 0.05 µM): 0.268 | relative viability ([17]; first compound 0.1581 µM): 0.198 | relative viability ([17]; first compound 0.5 µM): 0.201 | relative viability ([18]; first compound 0.005 µM): 1.01 | relative viability ([18]; first compound 0.01581 µM): 0.849 | relative viability ([18]; first compound 0.05 µM): 0.842 | relative viability ([18]; first compound 0.1581 µM): 0.33 | relative viability ([18]; first compound 0.5 µM): 0.247 | relative viability ([19]; first compound 0.005 µM): 0.973 | relative viability ([19]; first compound 0.01581 µM): 1.04 | relative viability ([19]; first compound 0.05 µM): 0.924 | relative viability ([19]; first compound 0.1581 µM): 0.542 | relative viability ([19]; first compound 0.5 µM): 0.452

From the supplement of paper PMC10307832
